Patent US6100239A, “13-membered ring macrolide compound, medicine containing the same, and process for producing the same” (Chugai Seiyaku Kabushiki Kaisha, priority 1996, dated 2000)
pIC50: −log10 of the molar value.

Target: T1, Motilin receptor (Oryctolagus cuniculus, UniProt G1T803)
T1 construct: homogenized in a 50 mM Tris solution (pH 7.4) to prepare a protein solution; from tissue; host or cells: rabbit duodenum (mucous membrane detached from the tunica muscularis, then homogenized)
Test: Motilin receptor binding test (125I-labeled motilin)
Settings: rabbit duodenum tunica muscularis homogenate; 25 pM 125I-labeled motilin; 25° C., 120 minutes; test drug in DMSO (final 1%); read-out: IC50, the concentration of the test drug which reduces the specific binding capacity to 50%
Description: Motilin receptor binding test was carried out by the method shown below (see V. Bormans, et al., Regul, Peptides, 15, 143 (1986)). From a slaughtered rabbit was removed the duodenum, of which the mucous membrane was detached from the tunica muscularis and then homogenized in a 50 mM Tris solution (pH 7.4) to prepare a protein solution. After incubating 25 pM ^125 I-labeled motilin (available from Otsuka Assay Laboratory) and the protein solution at 25° C. for 120 minutes, radioactivity in the protein solution was measured with a γ-ray counter. The difference between the radioactivity observed in the case of non-addition of motilin and that observed in the case of addition of an excess (1×10^-7 M) of motilin was defined as the specific binding capacity. The efficacy of the sample was expressed as IC50, the concentration of the test drug which reduces the specific binding capacity to 50%. The test drug was dissolved in a DMSO solution and added to the protein solution (the final DMSO concentration: 1%).

T1 sequence (G1T803 1-400): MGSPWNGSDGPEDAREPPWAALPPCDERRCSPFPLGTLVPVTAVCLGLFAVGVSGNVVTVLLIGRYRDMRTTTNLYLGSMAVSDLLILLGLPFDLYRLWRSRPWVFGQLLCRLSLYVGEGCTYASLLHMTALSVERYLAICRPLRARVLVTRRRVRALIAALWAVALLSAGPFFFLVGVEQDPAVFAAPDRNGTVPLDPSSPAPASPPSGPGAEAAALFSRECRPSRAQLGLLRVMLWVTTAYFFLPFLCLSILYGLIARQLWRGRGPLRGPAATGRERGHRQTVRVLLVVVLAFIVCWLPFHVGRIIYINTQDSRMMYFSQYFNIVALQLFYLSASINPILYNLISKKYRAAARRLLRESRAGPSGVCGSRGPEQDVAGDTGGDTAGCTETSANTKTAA

pIC50: 8.24
SMILES: COC1(C)CC(OC2C(C)C(=O)OC(C)C(=O)C(C)C3=C(C)CC(C)(O3)C(OC3OC(C)CC(N(C)C)C3O)C2C)OC(C)C1O (stereo not shown) [Compound 4]
